What was measured:
[1] = tested on: PLA2-GIB activity on the membrane of Jurkat E6.1 T cells; test: PLA2-GIB enzymatic assay on [3H] arachidonic acid labelled Jurkat E6.1 T cells; format: cell-based, human; settings: for PLA2-GIB activity vs scrambled PEP3: pretreatment 21 h
Method: (§1) Jurkat E6.1 T cells (ECACC 88042803) or gC1qR KO Jurkat E6.1 T cells were incubated for 17 h at 5×10^5 cells/ml with 1 μCi/ml of arachidonic acid [5,6,8,9,11,14,15-^3H(N)] (Perkin Elmer, NET298Z250UC) in RPMI 1640 medium (Lonza) supplemented with 10% FBS, 50 mM HEPES pH 7.4, glutamine, penicillin, streptomycin and fungizone at 2 ml/well in 6-well plates at 37° C. in a 5% CO2 humidified atmosphere. Cells were washed twice with RPMI with 10% FBS by centrifugation at 300×g for 10 minutes at room temperature and then frozen in 90% FBS 10% DMSO at 10^7 cells/ml/vial at −80° C. Percent of [3H] arachidonic acid in CD4 T cells is the (1 minus ratio of [3H] arachidonic acid in the supernatant of CD4 T cells without cells (cpm/ml) on total [3H] arachidonic acid in supernatant and cells (cpm/ml).
To test PLA2-GIB activity on [3H] arachidonic acid labelled Jurkat E6.1 T lymphocytes, cells were unfrozen in 10% FBS RPMI preheated at 37° C. by centrifugation at 300×g for 10 minutes at room temperature, washed twice in 2.5% FBS RPMI, and equilibrated at 5×10^4 or 10^5 Jurkat E6.1 T cells/400 μl/well in 24-well polystyrene plates for 1 h 30 at 37° C. in a 5% CO2 humidified atmosphere. Then HCV core solution or vehicle dilution in 2.5% FBS RPMI at 5.95 μM was mixed with an equal volume of a PLA2-GIB solution at 630 nM or 2 μM 2.5% FBS RPMI and 100 μl were added per well at the same time for 2 h. For peptide treatments, cells were pretreated for 2 h, 4 h or 21 h, as indicated on figures, with 50 μl per well of peptide solutions at 110 μM or 55 μM in 2.5% FBS RPMI. Then 50 μl per well of PLA2-GIB at 630 nM or 2 μM 2.5% FBS RPMI or medium alone were added for 2 h. Cells and supernatant were collected in eppendorf tubes and centrifuged at 580×g for 10 minutes at room temperature. The [3H] arachidonic acid released in cell supernatant was quantified in 300 μl with 16 ml of Ultima gold (Perkin Elmer, 6013329) in low diffusion vials (Perkin Elmer, 6000477) on a counter (tri-Carb 2800 TR liquid scintillation analyzer, Perkin Elmer).

[2] = tested on: pSTAT5 NT in CD4 T cells stimulated with IL-7; test: PLA2-GIB bioassay on CD4 T cells: pSTAT5 nuclear translocation in response to IL-7 (confocal microscopy); format: cell-based, human; settings: for effect on nuclear translocation of phosphoSTAT5 (pSTAT5 NT) induced by IL-7: buffer, FIG. 1A; for pSTAT5 NT in response to IL-7: FIG. 2
Excerpt: Purification of Human CD4 T-lymphocytes—Venous blood was obtained from healthy volunteers through the EFS (Etablissement Francais du Sang, Centre Necker-Cabanel, Paris). CD4 T-cells were purified from whole blood using RosetteSep Human CD4+ T cell Enrichment Cocktail (Stem Cell, 15062). This cocktail contains mouse and rat monoclonal antibodies purified from mouse ascites fluid or hybridoma culture supernatant, by affinity chromatography using protein A or Protein G sepharose. These antibodies are bound in bispecific tetrameric antibody complexes which are directed against cell surface antigens on human hematopoietic cells (CD8, CD16, CD19, CD36, CD56 CD66b, TCRγ/δ) and glycophorin A on red blood cells. The rosetteSep antibody cocktail crosslinks unwanted cells in human whole blood to multiple red blood cells, forming immunorosettes. This increases the density of unwanted cells, such that they pellet along with the free red blood cells when centrifuged over a buoyant density medium such as lymphocytes separation medium (Eurobio, CMSMSL01-01).
Whole blood was incubated with RosetteSep Human CD4+ T cell Enrichment Cocktail at 50 μl/ml for 20 minutes at room temperature under gentle shaking (100 rpm), diluted with an equal volume of PBS+2% foetal bovine serum (FBS) and mixed gently. The diluted samples were centrifuged 20 minutes at 1200×g on top of lymphocytes separation medium. The enriched cells were then collected from the density medium at plasma interface and washed twice with PBS+2% FBS. Cells were subsequently resuspended in RPMI 1640 medium (Lonza) supplemented with 5% FBS, 50 mM HEPES pH 7.4, glutamine, penicillin, streptomycin and fungizone (complete medium), counted with a Moxi Z mini automated cell counter (ORFLO, MXZ000). Cells suspension was adjusted at 7×10^6 cells/ml and equilibrated at least 2 h at 37° C. in a 5% CO2 humidified atmosphere.

gC1qR = molecular target: T1, gC1qR (Homo sapiens, UniProt Q07021); test: gC1qR-peptides binding assay (ELISA); settings: peptide coated on microplate, His-tag-gC1qR 0 to 3 μg/well, FIG. 12
T1 sequence (Q07021 74-282): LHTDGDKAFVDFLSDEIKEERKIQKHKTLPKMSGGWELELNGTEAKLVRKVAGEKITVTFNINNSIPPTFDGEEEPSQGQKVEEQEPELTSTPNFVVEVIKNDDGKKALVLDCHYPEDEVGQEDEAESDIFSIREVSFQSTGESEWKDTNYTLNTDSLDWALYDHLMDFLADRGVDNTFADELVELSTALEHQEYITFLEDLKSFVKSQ
Method: The unbound protein was removed; the wells washed 2× with TBST (20 mM Tris-HCl pH 7.5, 150 mM NaCl, and 0.05% Tween-20) and the unreacted sites blocked by incubation (30 min, room temp) with 300 μl of 3% BSA in TBST. After washing (2× with TBST), the microtiter plate bound peptides was incubated (2 h, room temp.) with different amount of His-tag-gC1qR ranging from 0 to 3 μg/well in triplicate. After washing (5 times with TBST), 100 μl of anti-His tag-HRP antibody (1:1000; 71840-3, Merck) in 3% BSA in TBST was added per well and incubated for 2 h at room temperature. Microplates wells were then washed (5 times with TBST) and 100 μl of TMB ELISA substrate standard solution (UP664781, Interchim) was added per well. Reaction was stopped with 100 μl per well of a H2SO4 solution at 0.16M and OD at 450 nm was measured on a microplate reader (Tecan Infinite M1000 Pro).

[3] = tested on: PLA2-GIB enzymatic activity on CD4 T cells membranes; test: PLA2-GIB enzymatic assay on [3H] arachidonic acid labelled CD4 T cells; format: cell-based, human
Method: as §1, with “PLA2-GIB enzymatic assay on [3H] arachidonic acid labelled CD4 T cells or Jurkat” for “Jurkat”, “cells—Purified CD4 T-cells” for “cells (ECACC 88042803) or gC1qR KO Jurkat E6.1 T cells”, “16” for “17”, “2×10^6” for “5×10^5”, “580×g” for “300×g”
To test PLA2-GIB activity on [3H] arachidonic acid labelled CD4 T lymphocytes, cells were unfrozen in 10% FBS RPMI preheated at 37° C. by centrifugation at 580×g for 10 minutes at room temperature, washed twice in 2.5% FBS RPMI, and equilibrated at 2×10^5 CD4 T cells/400 μl/well in 24-well polystyrene plates for 1 h 30 at 37° C. in a 5% CO2 humidified atmosphere. […] Cells and supernatant were collected in eppendorf tubes and centrifuged at 580×g for 10 minutes at room temperature. The [3H] arachidonic acid released in cell supernatant was quantified in 300 μl with 16 ml of Ultima gold (Perkin Elmer, 6013329) in low diffusion vials (Perkin Elmer, 6000477) on a counter (tri-Carb 2800 TR liquid scintillation analyzer, Perkin Elmer).
To study PLA2-GIB effect on CD4 T cells membranes we developed a new enzymatic assay in which CD4 T cells are labelled with [3H] arachidonic acid. When these cells are exposed to PLA2-GIB the enzymatic activity on CD4 T cells releases [3H] arachidonic acid. The quantification of [3H] arachidonic acid allowed us to quantify PLA2-GIB activity.

[4] = peptide alone, without PLA2-GIB, FIG. 5B

## NH2-SGEGGWSNGSLVDIM-COOH (H-SGEGGWSNGSLVDIM-OH) [HP Pg]
[1]; 200 nM PLA2-GIB, FIG. 15
  PLA2-GIB activity vs scrambled PEP3: significantly increased

## PLA2-GIB: Recombinant human group IB pancreatic phospholipase A2, produced in E. coli or CHO-S (SEQ ID NO: 1)
[2]; 5 nM PLA2-GIB alone
  effect on nuclear translocation of phosphoSTAT5 (pSTAT5 NT) induced by IL-7: does not affect
[2]; 5 nM PLA2-GIB, compared with no PLA2-GIB
  pSTAT5 NT in response to IL-7: biologically similar
[2]; 75 nM PLA2-GIB alone, FIG. 4
  inhibition of pSTAT5 NT: 49%
[2]; 75 nM PLA2-GIB alone
  effect on nuclear translocation of phosphoSTAT5 (pSTAT5 NT) induced by IL-7: significantly decreases
[2]; 75 nM PLA2-GIB
  pSTAT5 NT in response to IL-7: 50%
[2]; 250 nM PLA2-GIB alone, FIG. 4
  inhibition of pSTAT5 NT: 79%
[2]; 250 nM PLA2-GIB
  pSTAT5 NT in response to IL-7: 10%

## NH2-WNWDSKILSDPAWNS-COOH (H-WNWDSKILSDPAWNS-OH) [Scrambled PEP3, Scrambled PEP3 control peptide]
gC1qR
  binding to gC1qR: essentially do not

## C1q: Complement component C1q from human serum (Sigma C1740), natural ligand of gC1qR
[2]; C1q (10 μg/ml) with 5 nM PLA2-GIB, FIG. 6A
  inhibition of pSTAT5 NT: 75-85%
[2]; C1q alone (10 μg/ml), FIG. 6A
  inhibition of pSTAT5 NT: 40%

## NH2-PWNASWSNKSLDDIW-COOH (H-PWNASWSNKSLDDIW-OH) [PEP3]
[2]; 0.025 μg/ml PEP3 with 5 nM PLA2-GIB, FIG. 5B
  inhibition of pSTAT5 NT: 18%
[2]; 0.5 μg/ml PEP3 alone, n=3 donors, FIG. 5C
  inhibition of pSTAT5 NT: 5%
[2]; 2.5 μg/ml PEP3 with 5 nM PLA2-GIB, FIG. 5B
  inhibition of pSTAT5 NT: 51%
[2]; [4]
  effect on pSTAT5 NT: no effect
[1]; WT Jurkat E6.1 cells, FIG. 13
  PLA2-GIB activity vs scrambled PEP3: increased significantly
[1]; pretreatment 4 h or more, peptide 11 μM, 200 nM PLA2-GIB, FIG. 11
  PLA2-GIB activity on the membrane of Jurkat E6.1 T cells vs scrambled PEP3: significantly increased
gC1qR
  binding to gC1qR: binds to gC1qR

## NH2-PWNATWTQRTLDDIW-COOH (H-PWNATWTQRTLDDIW-OH) [CTL peptide, control peptide (CTL), reference compound]
[2]; [4]
  effect on pSTAT5 NT: no effect
[2]; peptide with 5 nM PLA2-GIB, FIG. 5B
  effect on pSTAT5 NT: no effect
gC1qR
  binding to gC1qR: essentially do not

B1: HCV core protein: Recombinant HCV core protein (Prospec HCV-011), SEQ ID NO: 43 (protein)
chain: MSTNPKPQRKTKRNTIRRPQDVKFPGGGQIVGGVYLLPRRGPRLGVRATRKTSERSQPRGRRQPIPKARRPEGRTWAQPGYPWPLYGNEGMGWAGWLLSPRGSRPSWGPTDPRRRSRNLGKVIDTLTCGFADLMGYVPLVGAPLGGAARALAHGVRALEDGVNYATGNLPGCSFSISLWXLLSCLTIPASA
modifications: not fully specified; X: residue not identified in the source
[3]; 10 μg/ml HCV core protein alone, FIG. 8B
  release of [3H] arachidonic acids by CD4 T cells: slightly and significantly increases
[3]; 10 μg/ml HCV core protein, 63 nM PLA2-GIB, FIG. 8A
  fold increase of PLA2-GIB activity: 26 fold
[3]; 10 μg/ml HCV core protein, 63 nM PLA2-GIB, n=3 donors, FIG. 8B
  fold increase of PLA2-GIB activity: 26 fold
[3]; 10 μg/ml HCV core protein, 200 nM PLA2-GIB, FIG. 8A
  fold increase of PLA2-GIB activity: 16 fold
[3]; 10 μg/ml HCV core protein, 200 nM PLA2-GIB, n=3 donors, FIG. 8B
  fold increase of PLA2-GIB activity: 16 fold
[3]; 20 μg/ml HCV core protein, 63 nM PLA2-GIB, FIG. 8A
  fold increase of PLA2-GIB activity: 36 fold
[3]; 20 μg/ml HCV core protein, 200 nM PLA2-GIB, FIG. 8A
  fold increase of PLA2-GIB activity: 26 fold
[3]; HCV core protein alone at 10 and 20 μg/ml, FIG. 8A
  release of [3H] arachidonic acids by CD4 T cells: slightly induces
[1]; HCV core 595 nM (10 μg/ml), FIG. 14
  PLA2-GIB activity on the membrane of Jurkat E6.1 T cells: significantly increased

Source: US20200397855A1, “MODULATION OF PLA2-G1B IN THERAPY” (priority 2018, published 2020)
